Data: patent US9688710B2, “Inhibitors of sodium glucose cotransporter 1” (LEXICON PHARMACEUTICALS, INC., priority 2012, dated 2017)

Columns and labels:
[1] = biological target: Human sodium/glucose co-transporter type 1 (SGLT1) (Homo sapiens (Human), UniProt P13866); assay: In vitro human SGLT1 inhibition assay (14C-AMG uptake); format: cell-based; set-up: key to SGLT1 (human SGLT1 IC50): ***: a value less than 0.01 μM; **: a value less than 0.1 μM; *: a value less than 1 μM; —: a value not measured or exceeding μM; settings: HEK293 cells expressing human HA-SGLT1, 14C-AMG uptake
Sequence of Human sodium/glucose co-transporter type 1 (SGLT1) (P13866 whole entry): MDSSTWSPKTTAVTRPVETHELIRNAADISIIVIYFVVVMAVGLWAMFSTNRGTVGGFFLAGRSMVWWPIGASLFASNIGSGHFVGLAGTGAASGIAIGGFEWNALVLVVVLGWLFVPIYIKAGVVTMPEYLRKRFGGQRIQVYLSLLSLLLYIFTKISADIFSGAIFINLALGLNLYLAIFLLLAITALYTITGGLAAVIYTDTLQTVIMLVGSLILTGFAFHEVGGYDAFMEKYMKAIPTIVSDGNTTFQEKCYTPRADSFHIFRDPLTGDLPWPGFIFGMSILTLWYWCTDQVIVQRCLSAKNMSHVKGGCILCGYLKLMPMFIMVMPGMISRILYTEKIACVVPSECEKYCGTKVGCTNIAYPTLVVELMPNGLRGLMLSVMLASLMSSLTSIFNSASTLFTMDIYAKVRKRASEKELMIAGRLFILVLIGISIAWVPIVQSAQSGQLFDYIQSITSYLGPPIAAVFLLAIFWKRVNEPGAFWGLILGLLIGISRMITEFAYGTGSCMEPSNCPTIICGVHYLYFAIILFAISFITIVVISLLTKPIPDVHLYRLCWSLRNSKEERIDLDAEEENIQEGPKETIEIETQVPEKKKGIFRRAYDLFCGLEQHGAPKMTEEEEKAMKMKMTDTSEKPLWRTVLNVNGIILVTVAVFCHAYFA
Procedure: Human sodium/glucose co-transporter type 1 (SGLT1; accession number NP_000334; GI: 4507031) was cloned into pIRESpuro2 vector for mammalian expression (construct: HA-SGLT1-pIRESpuro2).
HEK293 cells were transfected with the human HA-SGLT1-pIRESpuro2 vector and the bulk stable cell line was selected in presence of 0.5 μg/mL of puromycin. Human HA-SGLT1 cells were maintained in DMEM media containing 10% FBS, 1% GPS and 0.5 μg/mL of puromycin.
The HEK293 cells expressing the human HA-SGLT1 were seeded in 384 well plates (30,000 cells/well) in DMEM media containing 10% FBS, 1% GPS and 0.5 μg/mL of puromycin, then incubated overnight at 37 C, 5% CO2. Cells were then washed with uptake buffer (140 mM NaCl, 2 mM KCl, 1 mM CaCl2, 1 mM MgCl2, 10 mM HEPES, 5 mM Tris, 1 mg/mL bovine serum albumin (BSA), pH 7.3). Twenty microliters of uptake buffer with or without testing compounds were added to the cells. Then, 20 microliters of uptake buffer containing ^14C-AMG (100 nCi) were also added to cells. The cell plates were incubated at 37° C., 5% CO2 for 1-2 hours. After washing the cells with uptake buffer, scintillation fluid was added (40 microliters/well) and ^14C-AMG uptake was measured by counting radioactivity using a scintillation coulter (TopCoulter NXT; Packard Instruments).

[2] = biological target: Human sodium/glucose co-transporter type 2 (SGLT2) (Homo sapiens (Human), UniProt P31639); assay: In vitro human SGLT2 inhibition assay (14C-AMG uptake); format: cell-based; settings: HEK293 cells expressing human HA-SGLT2, 14C-AMG uptake
Sequence of Human sodium/glucose co-transporter type 2 (SGLT2) (P31639 whole entry): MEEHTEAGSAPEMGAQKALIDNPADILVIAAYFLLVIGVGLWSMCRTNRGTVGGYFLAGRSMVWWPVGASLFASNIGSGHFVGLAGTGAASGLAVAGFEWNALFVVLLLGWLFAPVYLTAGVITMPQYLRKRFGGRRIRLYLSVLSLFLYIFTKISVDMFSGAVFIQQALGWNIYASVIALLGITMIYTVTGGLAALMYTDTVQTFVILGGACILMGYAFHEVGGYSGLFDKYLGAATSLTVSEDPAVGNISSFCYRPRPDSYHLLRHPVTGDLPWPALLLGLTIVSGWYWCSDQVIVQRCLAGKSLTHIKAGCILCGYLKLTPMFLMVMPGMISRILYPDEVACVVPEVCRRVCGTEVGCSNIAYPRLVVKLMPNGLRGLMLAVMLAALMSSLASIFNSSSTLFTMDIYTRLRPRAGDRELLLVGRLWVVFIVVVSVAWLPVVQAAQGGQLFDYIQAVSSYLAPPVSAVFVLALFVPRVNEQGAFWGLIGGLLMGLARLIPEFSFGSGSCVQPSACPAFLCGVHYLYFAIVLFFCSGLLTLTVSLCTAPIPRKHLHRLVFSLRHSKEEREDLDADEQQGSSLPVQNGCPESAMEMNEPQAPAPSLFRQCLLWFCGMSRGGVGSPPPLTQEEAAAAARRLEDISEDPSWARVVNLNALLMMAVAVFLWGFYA
Procedure: Human sodium/glucose co-transporter type 2 (SGLT2; accession number P31639; GI:400337) was cloned into pIRESpuro2 vector for mammalian expression (construct: HA-SGLT2-pIRESpuro2).
HEK293 cells were transfected with the human HA-SGLT2-pIRESpuro2 vector and the bulk stable cell line was selected in presence of 0.5 μg/mL of puromycin. Human HA-SGLT2 cells were maintained in DMEM media containing 10% FBS, 1% GPS and 0.5 μg/mL of puromycin.
The HEK293 cells expressing the human HA-SGLT2 were seeded in 384 well plates (30,000 cells/well) in DMEM media containing 10% FBS, 1% GPS and 0.5 μg/mL of puromycin, then incubated overnight at 37 C, 5% CO2. Cells were then washed with uptake buffer (140 mM NaCl, 2 mM KCl, 1 mM CaCl2, 1 mM MgCl2, 10 mM HEPES, 5 mM Tris, 1 mg/mL bovine serum albumin (BSA), pH 7.3). Twenty microliters of uptake buffer with or without testing compounds were added to the cells. Then, 20 microliters of uptake buffer containing ^14C-AMG (100 nCi) were added to the cells. The cell plates were incubated at 37° C., 5% CO2 for 1-2 hours. After washing the cells with uptake buffer, scintillation fluid was added (40 microliters/well) and ^14C-AMG uptake was measured by counting radioactivity using a scintillation coulter (TopCoulter NXT; Packard Instruments).

SMILES	IC50 [1] [nM]	IC50 [2] [nM]	SGLT1 (human SGLT1 IC50) [1]
CS[C@H]1O[C@@H](c2ccc(C)c(Cc3ccc(OCCNCC(C)(C)C(N)=O)cc3)c2)[C@H](O)[C@@H](O)[C@@H]1O [2,2-dimethyl-3-((2-(4-(2-methyl-5-((2S,3R,4R,5S,6R)-3,4,5-trihydroxy-6-(methylthio)tetrahydro-2H-pyran-2-yl)benzyl)phenoxy)ethyl)amino)propanamide]	< 10	< 10	
CS[C@H]1O[C@@H](c2ccc(C)c(Cc3ccc(CCCC#N)cc3)c2)[C@H](O)[C@@H](O)[C@@H]1O [4-(4-(2-methyl-5-((2S,3R,4R,5S,6R)-3,4,5-trihydroxy-6-(methylthio)tetrahydro-2H-pyran-2-yl)benzyl)phenyl)butanenitrile]		< 100	—
CS[C@H]1O[C@@H](c2ccc(Cl)c(Cc3ccc(OCCNC(=O)OC(C)(C)C)cc3)c2)[C@H](O)[C@@H](O)[C@@H]1O [tert-butyl (2-(4-(2-chloro-5-((2S,3R,4R,5S,6R)-3,4,5-trihydroxy-6-(methylthio)tetrahydro-2H-pyran-2-yl)benzyl)phenoxy)ethyl)carbamate]	< 100	< 10	
CS[C@H]1O[C@@H](c2ccc(Cl)c(Cc3ccc(OCCNC(=O)N4CCN(C)CC4)cc3)c2)[C@H](O)[C@@H](O)[C@@H]1O [N-(2-(4-(2-chloro-5-((2S,3R,4R,5S,6R)-3,4,5-trihydroxy-6-(methylthio)tetrahydro-2H-pyran-2-yl)benzyl)phenoxy)ethyl)-4-methylpiperazine-1-carboxamide]	< 10	< 10	
CS[C@H]1O[C@@H](c2ccc(C)c(Cc3ccc(OCCCC(=O)NC(C)(C)C(=O)N4CCC(C)CC4)cc3)c2)[C@H](O)[C@@H](O)[C@@H]1O [N-(2-methyl-1-(4-methylpiperidin-1-yl)-1-oxopropan-2-yl)-4-(4-(2-methyl-5-((2S,3R,4R,5S,6R)-3,4,5-trihydroxy-6-(methylthio)tetrahydro-2H-pyran-2-yl)benzyl)phenoxy)butanamide]	< 10	< 10	
CS[C@H]1O[C@@H](c2ccc(C)c(Cc3ccc(CCCC(=O)NCC(C)(C)C(=O)NC4CCNCC4)cc3)c2)[C@H](O)[C@@H](O)[C@@H]1O [N-(2,2-dimethyl-3-oxo-3-(piperidin-4-ylamino)propyl)-4-(4-(2-methyl-5-((2S,3R,4R,5S,6R)-3,4,5-trihydroxy-6-(methylthio)tetrahydro-2H-pyran-2-yl)benzyl)phenyl)butanamide]	< 100	< 10	
CS[C@H]1O[C@@H](c2ccc(C)c(Cc3ccc(OCC(N)=O)cc3)c2)[C@H](O)[C@@H](O)[C@@H]1O [2-(4-(2-methyl-5-((2S,3R,4R,5S,6R)-3,4,5-trihydroxy-6-(methylthio)tetrahydro-2H-pyran-2-yl)benzyl)phenoxy)acetamide]	< 100	< 10	
CS[C@H]1O[C@@H](c2ccc(C)c(Cc3ccc(OCCCC(=O)NC(C)(C)C(=O)N4CCN(C)CC4)cc3)c2)[C@H](O)[C@@H](O)[C@@H]1O [N-(2-methyl-1-(4-methylpiperazin-1-yl)-1-oxopropan-2-yl)-4-(4-(2-methyl-5-((2S,3R,4R,5S,6R)-3,4,5-trihydroxy-6-(methylthio)tetrahydro-2H-pyran-2-yl)benzyl)phenoxy)butanamide]	< 10	< 10	
CS[C@H]1O[C@@H](c2ccc(C)c(Cc3ccc(/C=C/C[C@H](N)C(=O)O)cc3)c2)[C@H](O)[C@@H](O)[C@@H]1O [(S,E)-2-amino-5-(4-(2-methyl-5-((2S,3R,4R,5S,6R)-3,4,5-trihydroxy-6-(methylthio)tetrahydro-2H-pyran-2-yl)benzyl)phenyl)pent-4-enoic acid]	< 100	< 10	
CS[C@H]1O[C@@H](c2ccc(C)c(Cc3ccc(CCCC(=O)N4CCN(C)CC4)cc3)c2)[C@H](O)[C@@H](O)[C@@H]1O [4-(4-(2-methyl-5-((2S,3R,4R,5S,6R)-3,4,5-trihydroxy-6-(methylthio)tetrahydro-2H-pyran-2-yl)benzyl)phenyl)-1-(4-methylpiperazin-1-yl)butan-1-one]	< 100	< 10	
CS[C@H]1O[C@@H](c2ccc(C)c(Cc3ccc(CCCCCCC(=O)NC(CO)(CO)CO)cc3)c2)[C@H](O)[C@@H](O)[C@@H]1O [N-(1,3-dihydroxy-2-(hydroxymethyl)propan-2-yl)-7-(4-(2-methyl-5-((2S,3R,4R,5S,6R)-3,4,5-trihydroxy-6-(methylthio)tetrahydro-2H-pyran-2-yl)benzyl)phenyl)heptanamide]	< 100	< 10	
CS[C@H]1O[C@@H](c2ccc(C)c(Cc3ccc(OCC(O)CO)cc3)c2)[C@H](O)[C@@H](O)[C@@H]1O (stereo partly drawn) [(2S,3R,4R,5S,6R)-2-(3-(4-(2,3-dihydroxypropoxy)benzyl)-4-methylphenyl)-6-(methylthio)tetrahydro-2H-pyran-3,4,5-triol]	< 100	< 100	
CS[C@H]1O[C@@H](c2ccc(Cl)c(Cc3ccc(OCCCC(=O)N(CCO)CCO)cc3)c2)[C@H](O)[C@@H](O)[C@@H]1O [4-(4-(2-chloro-5-((2S,3R,4R,5S,6R)-3,4,5-trihydroxy-6-(methylthio)tetrahydro-2H-pyran-2-yl)benzyl)phenoxy)-N,N-bis(2-hydroxyethyl)butanamide]	< 100	< 10	
CS[C@H]1O[C@@H](c2ccc(C)c(Cc3ccc(CCCCN(CC(O)CO)CC(O)CO)cc3)c2)[C@H](O)[C@@H](O)[C@@H]1O (stereo partly drawn) [(2S,3R,4R,5S,6R)-2-(3-(4-(4-(bis(2,3-dihydroxypropyl)amino)butyl)benzyl)-4-methylphenyl)-6-(methylthio)tetrahydro-2H-pyran-3,4,5-triol]	< 10	< 10	
CS[C@H]1O[C@@H](c2ccc(C)c(Cc3ccc(CCCC(=O)NC(C)(C)CO)cc3)c2)[C@H](O)[C@@H](O)[C@@H]1O [N-(1-hydroxy-2-methylpropan-2-yl)-4-(4-(2-methyl-5-((2S,3R,4R,5S,6R)-3,4,5-trihydroxy-6-(methylthio)tetrahydro-2H-pyran-2-yl)benzyl)phenyl)butanamide]	< 10	< 10	
CS[C@H]1O[C@@H](c2ccc(C)c(Cc3ccc(OCCCC(=O)NC(C)(C)CO)cc3)c2)[C@H](O)[C@@H](O)[C@@H]1O [N-(1-hydroxy-2-methylpropan-2-yl)-4-(4-(2-methyl-5-((2S,3R,4R,5S,6R)-3,4,5-trihydroxy-6-(methylthio)tetrahydro-2H-pyran-2-yl)benzyl)phenoxy)butanamide]	< 10	< 10	
CS[C@H]1O[C@@H](c2ccc(C)c(Cc3ccc(CCCCNC(C)(C)CO)cc3)c2)[C@H](O)[C@@H](O)[C@@H]1O [(2S,3R,4R,5S,6R)-2-(3-(4-(4-((1-hydroxy-2-methylpropan-2-yl)amino)butyl)benzyl)-4-methylphenyl)-6-(methylthio)tetrahydro-2H-pyran-3,4,5-triol]	< 100	< 10	
CS[C@H]1O[C@@H](c2ccc(Cl)c(Cc3ccc(OCCCNC(=O)NC(C)(C)C(N)=O)cc3)c2)[C@H](O)[C@@H](O)[C@@H]1O [2-(3-(3-(4-(2-chloro-5-((2S,3R,4R,5S,6R)-3,4,5-trihydroxy-6-(methylthio)tetrahydro-2H-pyran-2-yl)benzyl)phenoxy)propyl)ureido)-2-methylpropanamide]	< 10	< 10	
CS[C@H]1O[C@@H](c2ccc(C)c(Cc3ccc(OCCNC(=O)NC(C)(C)CO)cc3)c2)[C@H](O)[C@@H](O)[C@@H]1O [1-(1-hydroxy-2-methylpropan-2-yl)-3-(2-(4-(2-methyl-5-((2S,3R,4R,5S,6R)-3,4,5-trihydroxy-6-(methylthio)tetrahydro-2H-pyran-2-yl)benzyl)phenoxy)ethyl)urea]	< 100		
